# Read-outs that look alike come from different tables or passages of the source.
# Assays:
# [1] = Acute toxicity test, rats; conditions: rat, in vivo; single oral administration, 5-week-old Jcl:Wistar rats (males, females)
# Description: (§1) The LD50 of compound 1 exceeded 2,000 mg/kg, as of single oral administration, in 4-week-old Jcl:ICR mice (males, females) and 5-week-old Jcl:Wistar rats (males, females).
# [2] = system: anterior ocular segment of rabbits; conditions: rabbit, in vivo
# Description: (§2) Male Japanese albino and pigmented rabbits having no anterior ocular abnormalities were used. One eye received 50 μl of the test drug, the other eye 50 μl of physiological saline as a control. Changes over time in ocular tension were measured. Ocular tension was measured for both eyes using a Pneumatonograph (produced by Alcon) before and 30 minutes and/or 1 hour after instillation. The test drug was (±)-1-(cyclohexyloxycarbonyloxy)ethyl 2-ethoxy-1-[[2'-(1H-tetrazol-5-yl)biphenyl-4-yl]methyl]-1H-benzimidazole-7-carboxylate (hereinafter referred to as Compound 1) as suspended in physiological saline or 0.1 w/v % polysorbate 80 to concentrations of 0.1, 0.5 and 1.0 w/v %. Also performed periodically were macroscopic observation of the anterior ocular segment and measurement of pupil diameter.
# pigmented rabbits [3] = conditions: rabbit, in vivo
# Description: as §2
# [4] = system: anterior ocular segment of rabbits; conditions: rabbit, in vivo; remark: listed apart in the source
# Description: as §2
# Japanese albino rabbits [5] = conditions: rabbit, in vivo
# Description: as §2
# Japanese albino rabbits [6] = test: Action for lowering intraocular pressure in Japanese albino rabbits (Pneumatonograph); assay type: in vivo, rabbit; conditions: for Intraocular Pressure 30 minutes after instillation / Intraocular Pressure before instillation: 50 μl; for Intraocular Pressure 30 minutes after instillation / Intraocular Pressure before instillation / Intraocular Pressure difference: n=5; for Intraocular Pressure before instillation: baseline; for Intraocular Pressure difference: 30 minutes after vs before instillation
# Description: (§3) The action for lowering intraocular pressure in rabbits
# as §2
# [7] = Acute toxicity test, mice; conditions: mouse, in vivo; single oral administration, 4-week-old Jcl:ICR mice (males, females)
# Description: as §1
# pigmented rabbits [8] = test: Action for lowering intraocular pressure in pigmented rabbits (Pneumatonograph); assay type: in vivo, rabbit; conditions: for Intraocular Pressure 1 hour after instillation / Intraocular Pressure 30 minutes after instillation / Intraocular Pressure before instillation: 50 μl; for Intraocular Pressure before instillation: baseline; for ocular tension (result in words): suspended in 0.1 w/v % polysorbate 80
# Description: as §3, §2
# [9] = 0.1 w/v %, suspended in physiological saline
# [10] = 0.5 w/v %, suspended in physiological saline
# [11] = 0.1 w/v %, suspended in 0.1 w/v % polysorbate 80, n=6
# [12] = 1.0 w/v %, suspended in 0.1 w/v % polysorbate 80, n=7
compound,measurement,setting,value
"CCOc1nc2cccc(C(=O)OC(C)OC(=O)OC3CCCCC3)c2n1Cc1ccc(-c2ccccc2-c2nnn[nH]2)cc1 (racemic) [Compound 1, (±)-1-(cyclohexyloxycarbonyloxy)ethyl 2-ethoxy-1-[[2'-(1H-tetrazol-5-yl)biphenyl-4-yl]methyl]-1H-benzimidazole-7-carboxylate]",LD50,[1],> 2000 mg/kg
same,macroscopic abnormalities in the anterior ocular segment,[2],no macroscopic abnormalities were noted
same,change in pupil diameter,pigmented rabbits [3],Nor was there any change in pupil diameter
same,macroscopic abnormalities in the anterior ocular segment,[4],no macroscopic abnormalities were noted
same,change in pupil diameter,Japanese albino rabbits [5],Nor was there any change in pupil diameter
same,Intraocular Pressure 30 minutes after instillation,Japanese albino rabbits [6]; [9],16.3 ± 1.16 mmHg
same,Intraocular Pressure before instillation,Japanese albino rabbits [6]; [9],17.8 ± 0.80 mmHg
same,Intraocular Pressure difference,Japanese albino rabbits [6]; 0.1 w/v %,-1.5 mmHg
same,Intraocular Pressure 30 minutes after instillation,Japanese albino rabbits [6]; [10],16.0 ± 0.76 mmHg
same,Intraocular Pressure before instillation,Japanese albino rabbits [6]; [10],18.2 ± 0.60 mmHg
same,Intraocular Pressure difference,Japanese albino rabbits [6]; 0.5 w/v %,-2.2 mmHg
same,Intraocular Pressure 30 minutes after instillation,"Japanese albino rabbits [6]; 1.0 w/v %, suspended in physiological saline, *p < 0.05 vs before instillation",15.0 ± 0.47 mmHg
same,Intraocular Pressure before instillation,"Japanese albino rabbits [6]; 1.0 w/v %, suspended in physiological saline",18.7 ± 0.44 mmHg
same,Intraocular Pressure difference,Japanese albino rabbits [6]; 1.0 w/v %,-3.7 mmHg
same,ocular tension (result in words),"Japanese albino rabbits [6]; by 30 minutes after instillation, 0.1, 0.5 and 1.0 w/v %, suspended in physiological saline",fell dose-dependently
same,LD50,[7],> 2000 mg/kg
same,Intraocular Pressure 1 hour after instillation,pigmented rabbits [8]; [11],23.6 ± 0.33 mmHg
same,Intraocular Pressure 30 minutes after instillation,"pigmented rabbits [8]; 0.1 w/v %, suspended in 0.1 w/v % polysorbate 80, n=6, *p < 0.05 vs before instillation",22.0 ± 0.39 mmHg
same,Intraocular Pressure before instillation,pigmented rabbits [8]; [11],24.3 ± 0.25 mmHg
same,ocular tension (result in words),"pigmented rabbits [8]; 0.1 w/v %, 30 minutes after instillation",fell greatly
same,Intraocular Pressure 30 minutes after instillation,pigmented rabbits [8]; [12],21.9 ± 0.81 mmHg
same,Intraocular Pressure 1 hour after instillation,"pigmented rabbits [8]; 1.0 w/v %, suspended in 0.1 w/v % polysorbate 80, n=7, **p < 0.001 vs before instillation",21.4 ± 0.43 mmHg
same,Intraocular Pressure before instillation,pigmented rabbits [8]; [12],24.0 ± 0.29 mmHg
same,ocular tension (result in words),"pigmented rabbits [8]; 1.0 w/v %, one hour after instillation",fell greatly
